Measured values published in US20080194701A1, “Bifunctional Enzyme with Y-Glutamylcysteine Synthetase and Glutathione Synthetase Activity and Uses Thereof” (priority 2004, published 2008).

Tests used:
S. agalactiae γ-GCS-GS = target: T1, S. agalactiae γ-GCS-GS (Streptococcus agalactiae serotype V, UniProt Q8DXM9); experiment: γ-GCS activity assay based on ADP formation, S. agalactiae γ-GCS-GS; format: biochemical; set-up: corresponded to full-length S. agalactiae γ-GCS-GS with an N-terminal His8-tag; made in house; host or cells: E. coli SG13009 with pQE30-gshAB plus pREP4 or pRARE; conditions: γ-GCS activity
T1 sequence (Q8DXM9 1-750): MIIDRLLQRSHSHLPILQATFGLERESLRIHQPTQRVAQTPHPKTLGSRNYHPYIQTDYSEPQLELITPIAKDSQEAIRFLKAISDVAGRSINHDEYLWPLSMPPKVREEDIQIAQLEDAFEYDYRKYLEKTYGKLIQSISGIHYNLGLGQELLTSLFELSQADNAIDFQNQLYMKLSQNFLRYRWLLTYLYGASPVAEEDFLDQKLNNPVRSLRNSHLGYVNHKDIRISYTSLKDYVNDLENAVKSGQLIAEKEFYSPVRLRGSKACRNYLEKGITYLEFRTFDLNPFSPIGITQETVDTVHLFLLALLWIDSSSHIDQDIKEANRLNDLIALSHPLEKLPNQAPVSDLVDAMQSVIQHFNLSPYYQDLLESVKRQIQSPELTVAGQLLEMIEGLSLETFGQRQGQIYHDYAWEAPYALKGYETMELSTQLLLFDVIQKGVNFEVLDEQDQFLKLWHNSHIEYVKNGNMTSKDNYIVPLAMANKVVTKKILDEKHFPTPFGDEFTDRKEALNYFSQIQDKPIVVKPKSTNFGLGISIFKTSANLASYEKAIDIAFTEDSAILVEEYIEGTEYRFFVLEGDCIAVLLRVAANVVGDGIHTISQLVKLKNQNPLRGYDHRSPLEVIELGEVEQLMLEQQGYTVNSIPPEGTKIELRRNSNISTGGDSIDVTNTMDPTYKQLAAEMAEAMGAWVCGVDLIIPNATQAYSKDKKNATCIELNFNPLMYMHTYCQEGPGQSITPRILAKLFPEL
Procedure: In Table 1, a unit was defined as the amount of enzyme activity required to catalyze the formation of 1 μmol of product per hour. Specific activity was shown as units per mg protein. Activity was determined at 37° C. based on ADP formation in reaction mixtures containing L-glutamate and L-cysteine and using pyruvate kinase and lactate dehydrogenase to couple ADP formation to NADH oxidation, which was monitored at 340 nm.
Exp. Purif. 13, 268-276 (1998).
At set time points ranging from one to 30 minutes, 5 μl aliquots were removed and assayed for residual enzyme activity using the standard γ-GCS assay based on ADP formation.

E. coli γ-GCS = E. coli γ-GCS (Escherichia coli, UniProt P0A6W9); conditions: cited from earlier work
Rat GS = target: T2, Rat GS (Rattus norvegicus, UniProt P46413); conditions: cited from earlier work
T2 sequence (P46413 1-474): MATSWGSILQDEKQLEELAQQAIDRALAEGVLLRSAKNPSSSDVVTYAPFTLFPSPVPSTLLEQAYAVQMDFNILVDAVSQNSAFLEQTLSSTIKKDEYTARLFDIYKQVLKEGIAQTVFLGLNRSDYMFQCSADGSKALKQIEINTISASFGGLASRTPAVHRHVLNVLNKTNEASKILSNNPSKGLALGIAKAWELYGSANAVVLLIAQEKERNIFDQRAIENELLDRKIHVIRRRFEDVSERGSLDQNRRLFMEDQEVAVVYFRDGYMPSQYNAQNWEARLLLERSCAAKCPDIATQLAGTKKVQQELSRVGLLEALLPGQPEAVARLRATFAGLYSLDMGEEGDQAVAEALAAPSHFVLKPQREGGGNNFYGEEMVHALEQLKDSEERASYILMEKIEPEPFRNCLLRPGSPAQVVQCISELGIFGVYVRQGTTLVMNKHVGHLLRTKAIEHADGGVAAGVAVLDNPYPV

E. faecalis γ-GCS-GS [1] = target: T3, E. faecalis γ-GCS-GS (Enterococcus faecalis, UniProt Q82ZG8); experiment: GS activity of E. faecalis γ-GCS-GS; conditions: substrate Km, GS activity
S. mutans γ-GCS-GS = S. mutans γ-GCS-GS (Streptococcus mutans serotype c, UniProt Q8DW15); experiment: γ-GCS activity of S. mutans γ-GCS-GS; conditions: substrate Km, γ-GCS activity
From the text: 3′ and 5′ […] 3′ and introduced unique Bgl II and Hind III sites (underlined), respectively.

Human GS = target: T4, Human GS (Homo sapiens, UniProt P48637); conditions: cited from earlier work
T4 sequence (P48637 1-474): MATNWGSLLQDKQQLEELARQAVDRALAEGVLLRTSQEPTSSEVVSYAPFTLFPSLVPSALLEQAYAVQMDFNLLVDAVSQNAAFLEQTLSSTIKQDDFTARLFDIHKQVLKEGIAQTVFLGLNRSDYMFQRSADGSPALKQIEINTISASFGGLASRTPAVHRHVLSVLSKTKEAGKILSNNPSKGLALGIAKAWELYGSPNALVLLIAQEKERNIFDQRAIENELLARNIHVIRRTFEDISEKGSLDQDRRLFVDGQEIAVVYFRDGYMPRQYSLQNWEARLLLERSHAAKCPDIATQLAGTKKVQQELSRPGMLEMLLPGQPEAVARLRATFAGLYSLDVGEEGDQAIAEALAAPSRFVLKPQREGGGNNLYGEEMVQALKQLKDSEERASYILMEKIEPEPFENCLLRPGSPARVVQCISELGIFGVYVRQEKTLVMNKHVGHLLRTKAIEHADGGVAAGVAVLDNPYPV

E. faecalis γ-GCS-GS [2] = target: T3, E. faecalis γ-GCS-GS; experiment: γ-GCS activity of E. faecalis γ-GCS-GS; conditions: substrate Km, γ-GCS activity

T3 sequence (Q82ZG8 whole entry): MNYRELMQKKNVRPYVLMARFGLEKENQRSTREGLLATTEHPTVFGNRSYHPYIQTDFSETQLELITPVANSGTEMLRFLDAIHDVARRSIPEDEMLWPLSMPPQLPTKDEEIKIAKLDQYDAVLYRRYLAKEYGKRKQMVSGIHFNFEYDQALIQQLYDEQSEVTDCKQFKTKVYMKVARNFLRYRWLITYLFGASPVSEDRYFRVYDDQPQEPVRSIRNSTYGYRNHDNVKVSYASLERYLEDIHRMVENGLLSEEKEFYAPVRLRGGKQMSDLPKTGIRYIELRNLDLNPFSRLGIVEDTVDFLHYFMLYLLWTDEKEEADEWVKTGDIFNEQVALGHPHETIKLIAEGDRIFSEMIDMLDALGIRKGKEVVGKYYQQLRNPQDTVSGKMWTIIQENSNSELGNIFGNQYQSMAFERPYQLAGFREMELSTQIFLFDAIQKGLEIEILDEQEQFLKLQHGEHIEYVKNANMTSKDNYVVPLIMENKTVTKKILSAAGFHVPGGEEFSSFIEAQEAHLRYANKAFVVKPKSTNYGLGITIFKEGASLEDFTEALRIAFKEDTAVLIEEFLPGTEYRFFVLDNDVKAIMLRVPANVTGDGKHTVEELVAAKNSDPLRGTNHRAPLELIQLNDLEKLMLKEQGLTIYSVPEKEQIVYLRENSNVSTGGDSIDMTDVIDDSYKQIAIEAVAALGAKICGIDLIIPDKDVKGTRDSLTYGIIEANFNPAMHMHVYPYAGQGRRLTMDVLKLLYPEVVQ
Chain of E. coli γ-GCS (P0A6W9 whole entry): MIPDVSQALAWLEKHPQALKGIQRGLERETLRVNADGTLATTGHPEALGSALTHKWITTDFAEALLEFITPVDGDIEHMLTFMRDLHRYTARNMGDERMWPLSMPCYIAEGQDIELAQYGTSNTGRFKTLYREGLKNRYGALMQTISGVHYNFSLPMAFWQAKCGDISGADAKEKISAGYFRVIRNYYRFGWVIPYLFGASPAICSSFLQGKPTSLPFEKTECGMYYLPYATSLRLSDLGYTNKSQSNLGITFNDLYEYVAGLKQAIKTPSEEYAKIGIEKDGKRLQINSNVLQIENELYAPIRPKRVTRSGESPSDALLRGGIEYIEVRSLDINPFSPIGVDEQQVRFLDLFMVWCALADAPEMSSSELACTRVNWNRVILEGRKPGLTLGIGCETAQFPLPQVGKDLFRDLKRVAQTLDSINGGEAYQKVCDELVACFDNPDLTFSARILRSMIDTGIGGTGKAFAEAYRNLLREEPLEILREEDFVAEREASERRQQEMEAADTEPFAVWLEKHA
Chain of S. mutans γ-GCS-GS (Q8DW15 whole entry): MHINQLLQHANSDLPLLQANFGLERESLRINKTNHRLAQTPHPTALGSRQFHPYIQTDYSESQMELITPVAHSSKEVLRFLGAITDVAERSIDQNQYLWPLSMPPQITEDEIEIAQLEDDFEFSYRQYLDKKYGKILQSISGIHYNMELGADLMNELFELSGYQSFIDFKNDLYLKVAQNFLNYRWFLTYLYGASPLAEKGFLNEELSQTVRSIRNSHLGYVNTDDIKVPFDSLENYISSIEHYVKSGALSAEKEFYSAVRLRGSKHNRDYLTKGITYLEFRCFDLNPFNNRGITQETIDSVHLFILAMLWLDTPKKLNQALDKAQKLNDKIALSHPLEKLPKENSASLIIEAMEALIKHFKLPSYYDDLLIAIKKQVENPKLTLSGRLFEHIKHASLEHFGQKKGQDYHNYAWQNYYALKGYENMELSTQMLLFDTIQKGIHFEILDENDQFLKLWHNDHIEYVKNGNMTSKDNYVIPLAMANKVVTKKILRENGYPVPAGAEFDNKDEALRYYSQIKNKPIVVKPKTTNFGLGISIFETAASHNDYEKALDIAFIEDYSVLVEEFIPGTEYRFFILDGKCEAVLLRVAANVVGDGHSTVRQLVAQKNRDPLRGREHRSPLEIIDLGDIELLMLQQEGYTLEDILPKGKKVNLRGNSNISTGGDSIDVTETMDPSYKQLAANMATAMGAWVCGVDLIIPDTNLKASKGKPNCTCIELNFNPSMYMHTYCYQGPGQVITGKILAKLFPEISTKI

**Q.** Which Km (S. agalactiae γ-GCS-GS; substrate Km) does the source give for `Nc1ncnc2c1ncn2[C@@H]1O[C@H](COP(=O)(O)OP(=O)(O)OP(=O)(O)O)[C@@H](O)[C@H]1O` [ATP] here?
**A.** Its Km is 66 ± 9 µM.

**Q.** And the Vmax (S. agalactiae γ-GCS-GS; unit = 1 μmol product per hour)?
**A.** Its Vmax is 1332 ± 120 units/mg.

**Q.** What about the Km (E. coli γ-GCS; substrate Km) of the same compound?
**A.** The Km was 62 µM.

**Q.** And the Vmax (E. coli γ-GCS; unit = 1 μmol product per hour)?
**A.** The Vmax was about 3000 units/mg.

**Q.** And the Vmax (Rat GS)?
**A.** The Vmax was 678 units/mg.

**Q.** And the Km (Rat GS; substrate Km)?
**A.** The Km was 37 µM.

**Q.** What about the Km (E. faecalis γ-GCS-GS [1]) of the same compound?
**A.** Its Km is 179 ± 5 µM.

**Q.** What about the Km (S. mutans γ-GCS-GS) of the same compound?
**A.** The Km was 288 ± 105 µM.

**Q.** And the Vmax (Human GS)?
**A.** Its Vmax is 361 ± 84 units/mg.

**Q.** What about the Km (Human GS; substrate Km) of the same compound?
**A.** The Km was 220 ± 30 µM.

**Q.** And the Km (E. faecalis γ-GCS-GS [2])?
**A.** Its Km is 2300 ± 100 µM.
